Results from patent US9440913B2, “Dihydroxybenzene derivatives and antiprotozoal agent comprising same as active ingredient” (NAI INC., priority 2010, dated 2016).
Values belong to the compound of their own block, whether it stands above or below them.

Columns and labels:
[1] = target: T1, recombinant Trypanosome AOX (TAO) enzyme (Trypanosoma brucei brucei, UniProt Q26710); test: TAO enzyme inhibition (quinol oxidase activity, ubiquinol-1 substrate); format: biochemical, T. brucei brucei; conditions: TAO-expressing E. coli membrane fraction, 25° C., ubiquinol-1, absorbance at 278 nm
T1 construct: made in house; host or cells: Escherichia coli (membrane fraction)
T1 sequence (Q26710 whole entry): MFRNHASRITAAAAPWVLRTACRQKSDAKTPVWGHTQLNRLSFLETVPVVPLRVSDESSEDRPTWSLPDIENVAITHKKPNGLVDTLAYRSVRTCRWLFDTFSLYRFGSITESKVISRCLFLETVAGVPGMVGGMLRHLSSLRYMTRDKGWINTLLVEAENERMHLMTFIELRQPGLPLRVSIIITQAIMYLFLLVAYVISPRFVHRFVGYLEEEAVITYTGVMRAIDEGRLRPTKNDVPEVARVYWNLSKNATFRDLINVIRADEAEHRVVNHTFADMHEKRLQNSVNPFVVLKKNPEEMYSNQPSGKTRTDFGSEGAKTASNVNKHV
Protocol: Escherichia coli membrane fractions that express TAO by a plasmid harboring TAO cDNA cloned from T. brucei brucei (Fukai, Comparative Biochemistry & Physiology, 124, 141-148, 1999) were used as a recombinant Trypanosome AOX (TAO) enzyme. 50 mM Tris-HCl (pH 7.5), TAO-expressing membrane fraction (0.35 ng), and […] of an inhibitor were mixed in a 1 mL cuvette, and the mixture was incubated at 25° C. for 4 minutes. Ubiquinol-1 as a substrate was then added to the mixture to initiated the reaction, and change in absorbance at 278 nm was monitored (Shimadzu UV-3000, molar absorption coefficient ε=15 cm^−1 mM^−1).

T. b. rhodesiense IL1501 = test: Antiprotozoal effect, MIC measurement in HMI-9 culture; format: cell-based; conditions: bloodstream forms, 18 + 6 hours culture
Protocol: T. b. rhodesiense IL1501, the human infectious protozoan that causes acute symptoms, was used as a Trypanosomatid protozoan. The bloodstream forms of protozoan can be cultured in a HMI-9 culture medium (Hirumi, 1989). The protozoan was always cultured at a temperature of 37° C. in the presence of 5% CO2.
In a microtiter plate (96-well, FALCON 3072), HMI-9 culture medium and HMI-9 culture medium plus glycerol added to make a final concentration of 8.33 mM are separately prepared. 89 μL of the preparation are put into only the first well, and a 60 μL aliquot of each the other wells. 1 μL of a solution of AF or a AF derivative dissolved in DMSO was added to the first well, and was then suspended. A 30 μL aliquot of the suspension was then collected, was transferred to the second well, and was suspended. These operations were repeated in this order to prepare a three-fold dilution series of drug. A 40 μL aliquot of a protozoan culture was added to each well to make a final concentration of 5×10^4 cells/well (a final concentration of glycerol of 5 mM) followed by 18-hours culturing under conditions of 37° C. and 5% CO2. (For EC50 measurement, a 10 μL aliquot of Alamar Blue was added to each well), culturing was carried out under the same conditions for 6 more hours, surviving protozoans were visually observed with a microscope. The concentration at which no motile surviving protozoan was observed was defined as MIC.

[2] = Trypanosoma brucei, RHODESIENSE, 24 h, Glycerol (+), final concentration of glycerol of 5 mM
[3] = Trypanosoma brucei, RHODESIENSE, 24 h, Glycerol (−)

- melting point: 71 °C
Structure (SMILES): COC(=O)c1cc(Cl)c(O)c(C/C=C(\C)CCC=C(C)C)c1O

Structure (SMILES): CC(=O)c1c(C)c(Cl)c(O)c(CCCCCCCOC(=O)C(C)(C)C)c1O [Compound 172-11-OPiv, 7-(3-Acetyl-5-chloro-2,6-dihydroxy-4-methylphenyl)heptyl pivalate]
- IC50 [1]: 8 nM
- MIC (T. b. rhodesiense IL1501; [2]): 19 nM
- MIC (T. b. rhodesiense IL1501; [3]): 540 nM

Structure (SMILES): CC(=O)c1c(C)c(Cl)c(O)c(C/C=C(\C)CC/C=C(\C)COC(=O)C(C)(C)C)c1O [Compound 175-12-OPiv, (2E,6E)-8-(5-Acetyl-3-chloro-2,6-dihydroxy-4-methylphenyl)-2,6-dimethyl-2,6-octadienyl pivalate]
- IC50 [1]: 0.7 nM
- MIC (T. b. rhodesiense IL1501; [2]): 1.4 nM
- MIC (T. b. rhodesiense IL1501; [3]): 10 nM

Structure (SMILES): Cc1c(Cl)c(O)c(/C=C/CCCCCOC(=O)C(C)(C)C)c(O)c1C=O [Compound 200-11-OPiv, (E)-7-(3-Chloro-5-formyl-2,6-dihydroxy-4-methylphenyl)-6-heptenyl pivalate]
- IC50 [1]: 0.53 nM
- MIC (T. b. rhodesiense IL1501; [2]): 0.8 nM
- MIC (T. b. rhodesiense IL1501; [3]): 22 nM

Structure (SMILES): COC(=O)CCCCCCC/C=C/c1c(O)c(Cl)c(C)c(C=O)c1O [Compound 200-12-COOMe, (E)-Methyl 10-(3-chloro-5-formyl-2,6-dihydroxy-4-methylphenyl)-10-decenoate]
- IC50 [1]: 0.5 nM
- MIC (T. b. rhodesiense IL1501; [2]): 33 nM
- MIC (T. b. rhodesiense IL1501; [3]): 120 nM

Structure (SMILES): Cc1c(Cl)c(O)c(/C=C/CCCCCCOC(=O)C(C)C)c(O)c1C=O [Compound 200-12-OCOiPr, (E)-8-(3-Chloro-5-formyl-2,6-dihydroxy-4-methylphenyl)-7-octenyl isobutylate]
- IC50 [1]: 0.75 nM

Structure (SMILES): CC(=O)c1c(C)c(Cl)c(O)c(C/C=C(\C)CC/C=C(\C)C2CC(=O)C(C)(C)O2)c1O (centres unmarked) [Compound 214, 5-Chloro-2,4-dihydroxy-6-methyl-3-[(2E,6E)-7-(5,5-dimethyl-4-oxotetrahydrohuran-2-yl)-3,7-dimethyl-2,6-heptadienyl]acetophenone]
- IC50 [1]: 0.3 nM

Structure (SMILES): CCOC(=O)CCCCCCCc1c(O)c(Cl)c(C)c(C=O)c1O [Compound 215-11-COOEt, Ethyl 8-(3-chloro-5-formyl-2,6-dihydroxy-4-methylphenyl)octanoate]
- IC50 [1]: 0.5 nM
- MIC (T. b. rhodesiense IL1501; [2]): 8.5 nM
- MIC (T. b. rhodesiense IL1501; [3]): 48 nM

Structure (SMILES): Cc1c(Cl)c(O)c(CCCCCCCCCC(=O)C(C)(C)C)c(O)c1C=O [Compound 215-12-Piv, 3-Chloro-4,6-dihydroxy-5-(11,11-dimethyl-10-oxo-dodecyl)-2-methylbenzaldehyde]
- IC50 [1]: 0.4 nM

Structure (SMILES): CCOC(=O)CCCCCCCCCc1c(O)c(Cl)c(C)c(C=O)c1O [Compound 215-13-COOEt, Ethyl 10-(3-chloro-5-formyl-2,6-dihydroxy-4-methylphenyl)decanoate]
- IC50 [1]: 0.2 nM
- MIC (T. b. rhodesiense IL1501; [2]): 2 nM
- MIC (T. b. rhodesiense IL1501; [3]): 24 nM

Structure (SMILES): Cc1c(Cl)c(O)c(CCCCCCCCCOC(=O)C(C)C)c(O)c1C=O [Compound 215-13-OCOiPr, 9-(3-Chloro-5-formyl-2,6-dihydroxy-4-methylphenyl)nonyl isobutylate]
- IC50 [1]: 0.3 nM

Structure (SMILES): COC(C)(C)CCC/C(C)=C/Cc1c(O)c(Cl)c(C)c(C=O)c1O [Compound 231-9-OMe, 3-Chloro-4,6-dihydroxy-5-[(E)-7-methoxy-3,7-dimethyl-2-octeny]-2-methylbenzaldehyde]
- IC50 [1]: 0.29 nM

Structure (SMILES): C/C(=C\Cc1c(O)c(Cl)c(C)c(C=O)c1O)CC/C=C(\C)COC1CCCCO1 (centres unmarked) [Compound 236-13-OTHP, 3-Chloro-5-[(2E,6E)-3,7-dimethyl-8-(tetrahydropyran-2-yloxy)-2,6-octadienyl]-4,6-dihydroxy-2-methylbenzaldehyde]
- IC50 [1]: 0.2 nM

Structure (SMILES): Cc1c(Cl)c(O)c(/C=C/CCCCCC2CC(=O)C(C)(C)O2)c(O)c1C=O (centres unmarked) [Compound 249, 3-Chloro-4,6-dihydroxy-2-methyl-5-[(E)-7-(5,5-dimethyl-4-oxo-tetrahydrofuran-2-yl)-1-heptenyl]benzaldehyde]
- IC50 [1]: 1 nM
- MIC (T. b. rhodesiense IL1501; [2]): 18 nM
- MIC (T. b. rhodesiense IL1501; [3]): 74 nM

Structure (SMILES): CCCCC/C(C)=C/Cc1c(O)c(Cl)c(C)c(C=O)c1O [Compound 264-8, (E)-3-Chloro-4,6-dihydroxy-2-methyl-5-(3-methyl-2-octenyl)benzaldehyde]
- IC50 [1]: 0.06 nM
- MIC (T. b. rhodesiense IL1501; [2]): 0.002 nM
- MIC (T. b. rhodesiense IL1501; [3]): 0.18 nM

Structure (SMILES): C/C(=C\Cc1c(O)c(Cl)c(C)c(C=O)c1O)CCCCOC(=O)C(C)(C)C [Compound 264-11-OPiv, (5E)-7-(3-Chloro-5-formyl-2,6-dihydroxy-4-methylphenyl)-5-methyl-5-heptenyl pivalate]
- IC50 [1]: 0.22 nM

Structure (SMILES): CCCCCC(C)CCc1c(O)c(Cl)c(C)c(C(C)=O)c1O (centres unmarked) [Compound 269-8, 3-Chloro-4,6-dihydroxy-2-methyl-5-(3-methyloctyl)acetophenone]
- IC50 [1]: 2.5 nM
- MIC (T. b. rhodesiense IL1501; Glycerol (+), final concentration of glycerol of 5 mM): 70 nM
- MIC (T. b. rhodesiense IL1501; Glycerol (−)): 500 nM

Structure (SMILES): CCCCC/C(C)=C/COc1cc(O)c(C(C)=O)c(C)c1Cl [Compound 270-8, (E)-3-Chloro-6-hydroxy-2-methyl-(3-methyl-2-octenoxy)acetophenone]
- IC50 [1]: 300 nM
- MIC (T. b. rhodesiense IL1501; [2]): 3700 nM
- MIC (T. b. rhodesiense IL1501; [3]): 9200 nM

Structure (SMILES): C/C(=C\CC/C=C/Cc1c(O)c(Cl)c(C)c(C=O)c1O)COC(=O)C(C)(C)C [Compound 278-12-OPiv, (2E,6E)-8-(3-Chloro-5-formyl-2,6-dihydroxy-4-methylphenyl)-2-methyl-2,6-octadienyl pivalate]
- IC50 [1]: 0.26 nM

Structure (SMILES): Cc1c(Cl)c(O)c(CCCCCCC(C)COC(=O)C(C)(C)C)c(O)c1C=O (centres unmarked) [Compound 279-12-OPiv, 8-(3-Chloro-5-formyl-2,6-dihydroxy-4-methylphenyl)-2-methyloctyl pivalate]
- IC50 [1]: 0.41 nM

Structure (SMILES): CC(=O)c1c(C)c(Cl)c(O)c(C/C=C(\C)CC/C=C(\C)C(C)O)c1O (centres unmarked) [Compound 286-9-OH, (2E,6E)-3-Chloro-4,6-dihydroxy-2-methyl-5-(8-hydroxy-3′,7′-dimethyl-2′,6′-nonadienyl)acetophenone]
- IC50 [1]: 7.1 nM

Structure (SMILES): C/C(=C\COC(=O)C(C)C)CC/C(C)=C/Cc1c(O)c(Cl)c(C)c(C=O)c1O [Compound 287-12-OCOiPr, (2E,6E)-8-(3-Chloro-5-formyl-2,6-dihydroxy-4-methylphenyl)-3,6-dimethyl-2,6-octadienyl isobutylate]
- IC50 [1]: 0.26 nM

Structure (SMILES): C/C(=C\COC(=O)C(C)(C)C)CC/C(C)=C/Cc1c(O)c(Cl)c(C)c(C=O)c1O [Compound 287-12-OPiv, (2E,6E)-8-(3-Chloro-5-formyl-2,6-dihydroxy-4-methylphenyl)-3,6-dimethyl-2,6-octadienyl pivalate]
- IC50 [1]: 0.36 nM

Structure (SMILES): Cc1c(Cl)c(O)c(C/C=C/CCCC/C=C/C(=O)C(C)(C)C)c(O)c1C=O [Compound 288-12-Piv, 3-Chloro-4,6-dihydroxy-5-((E,E)-11,11-dimethyl-10-oxo-2,8-dodecadienyl)-2-methylbenzaldehyde]
- IC50 [1]: 0.74 nM

Structure (SMILES): C/C(=C\Cc1c(O)c(Cl)c(C)c(C=O)c1O)CC/C=C/COC(=O)C(C)(C)C [Compound 289-12-OPiv, (2E,6E)-8-(3-Chloro-5-formyl-2,6-dihydroxy-4-methylphenyl)-6-methyl-2,6-octadienyl pivalate]
- IC50 [1]: 0.2 nM

Structure (SMILES): Cc1c(Cl)c(O)c(CCC(C)CCCCCOC(=O)C(C)(C)C)c(O)c1C=O (centres unmarked) [Compound 290-12-OPiv, 8-(3-Chloro-5-formyl-2,6-dihydroxy-4-methylphenyl)-6-methyloctyl pivalate]
- IC50 [1]: 0.3 nM

Structure (SMILES): C/C(=C\Cc1c(O)c(Cl)c(C)c(CO)c1O)CC/C=C(\C)COC(=O)C(C)(C)C [Compound 503-OPiv, (2E,6E)-8-(3-Chloro-2,6-dihydroxy-5-hydroxymethyl-4-methylphenyl)-2,6-dimethyl-2,6-octadienyl pivalate]
- IC50 [1]: 0.3 nM
